Measurements reported in patent publication US11957687B2 (REGENERON PHARMACEUTICALS, INC., priority 2019, dated 2024).

target: HSD17B13 (Homo sapiens (Human), UniProt Q7Z5P4); experiment: HSD17B13 enzymatic inhibition assay (150 nM or 50 nM HSD17B13); assay type: biochemical; settings: 50 nM HSD17B13; read-out: Inhibition of 50 nM of HSD17B13 IC50
Sequence (Q7Z5P4 other isoform, or with tags, fused parts or gaps): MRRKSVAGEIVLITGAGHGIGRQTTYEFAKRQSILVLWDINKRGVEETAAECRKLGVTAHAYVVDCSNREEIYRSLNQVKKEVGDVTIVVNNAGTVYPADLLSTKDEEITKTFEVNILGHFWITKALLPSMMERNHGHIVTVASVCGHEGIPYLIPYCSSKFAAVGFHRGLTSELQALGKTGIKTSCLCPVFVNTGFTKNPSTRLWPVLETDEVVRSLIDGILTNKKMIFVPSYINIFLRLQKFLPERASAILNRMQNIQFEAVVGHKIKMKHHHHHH

SMILES	IC50
CCCc1ccc2c(c1)C(NC(=O)c1ccc(C(F)(F)F)[nH]c1=O)c1ccccc1S2 (centres unmarked) [Compound 458, 2-oxo-N-(2-propyl-9H-thioxanthen-9-yl)-6-(trifluoromethyl)-1,2-dihydropyridine-3-carboxamide]	520 nM
Cc1ccc2c(c1)Oc1cc(C)ccc1C2NC(=O)c1ccc(-c2ccccc2)[nH]c1=O [Compound 459, N-(3,6-dimethyl-9H-xanthen-9-yl)-2-oxo-6-phenyl-1,2-dihydropyridine-3-carboxamide]	> 10000 nM
CCCc1cccc(C(NC(=O)c2ccc(C(F)(F)F)[nH]c2=O)c2ccccc2)c1 (centres unmarked) [Compound 465, 2-oxo-N-(phenyl(3-propylphenyl)methyl)-6-(trifluoromethyl)-1,2-dihydropyridine-3-carboxamide]	610 nM
CCc1cccc(C(NC(=O)c2ccc(C(F)(F)F)[nH]c2=O)c2ccccc2)c1 (centres unmarked) [Compound 466, N-((3-ethylphenyl)(phenyl)methyl)-2-oxo-6-(trifluoromethyl)-1,2-dihydropyridine-3-carboxamide]	600 nM
C=Cc1cccc(C(NC(=O)c2ccc(C(F)(F)F)[nH]c2=O)c2ccccc2)c1 (centres unmarked) [Compound 467, 2-oxo-N-(phenyl(3-vinylphenyl)methyl)-6-(trifluoromethyl)-1,2-dihydropyridine-3-carboxamide]	990 nM
CCc1ccc2c(c1)C(NC(=O)c1ccc(C(F)(F)F)[nH]c1=O)c1ccccc1S2(=O)=O (centres unmarked) [Compound 468, N-(2-ethyl-10,10-dioxido-9H-thioxanthen-9-yl)-2-oxo-6-(trifluoromethyl)-1,2-dihydropyridine-3-carboxamide]	190 nM
CCCc1ccc2c(c1)C(NC(=O)c1ccc(C(F)(F)F)[nH]c1=O)c1ccccc1S2(=O)=O (centres unmarked) [Compound 469, N-(10,10-dioxido-2-propyl-9H-thioxanthen-9-yl)-2-oxo-6-(trifluoromethyl)-1,2-dihydropyridine-3-carboxamide]	310 nM
Cc1ccc2c(c1)C(NC(=O)c1ccc(C(F)(F)F)[nH]c1=O)c1ccccc1S2(=O)=O (centres unmarked) [Compound 470, N-(2-methyl-10,10-dioxido-9H-thioxanthen-9-yl)-2-oxo-6-(trifluoromethyl)-1,2-dihydropyridine-3-carboxamide]	420 nM
C=CCc1ccc2c(c1)C(NC(=O)c1ccc(C(F)(F)F)[nH]c1=O)c1ccccc1O2 (centres unmarked) [Compound 471, N-(2-allyl-9H-xanthen-9-yl)-2-oxo-6-(trifluoromethyl)-1,2-dihydropyridine-3-carboxamide]	280 nM
O=C(NC1c2ccccc2S(=O)(=O)c2ccc(CC(F)(F)F)cc21)c1ccc(C(F)(F)F)[nH]c1=O (centres unmarked) [Compound 472, N-(10,10-dioxido-2-(2,2,2-trifluoroethyl)-9H-thioxanthen-9-yl)-2-oxo-6-(trifluoromethyl)-1,2-dihydropyridine-3-carboxamide]	480 nM
Cc1ccc2c(c1)S(=O)(=O)c1cccc(C)c1C2NC(=O)c1ccc(C(F)(F)F)[nH]c1=O (centres unmarked) [Compound 476, N-(1,6-dimethyl-10,10-dioxido-9H-thioxanthen-9-yl)-2-oxo-6-(trifluoromethyl)-1,2-dihydropyridine-3-carboxamide]	> 10000 nM
O=C(NC1CCOc2cccnc21)c1ccc(C(F)(F)F)[nH]c1=O (centres unmarked) [Compound 477, N-(3,4-dihydro-2H-pyrano[3,2-b]pyridin-4-yl)-2-oxo-6-(trifluoromethyl)-1,2-dihydropyridine-3-carboxamide]	> 10000 nM
O=C(NC(c1ccccc1)c1cccc(CC(F)(F)F)c1)c1ccc(C(F)(F)F)[nH]c1=O (centres unmarked) [Compound 478, 2-oxo-N-(phenyl(3-(2,2,2-trifluoroethyl)phenyl)methyl)-6-(trifluoromethyl)-1,2-dihydropyridine-3-carboxamide]	1410 nM
O=C(NC1c2ccccc2Oc2ccc(CC(F)(F)F)cc21)c1ccc(C(F)(F)F)[nH]c1=O (centres unmarked) [Compound 479, 2-oxo-N-(2-(2,2,2-trifluoroethyl)-9H-xanthen-9-yl)-6-(trifluoromethyl)-1,2-dihydropyridine-3-carboxamide]	260 nM
O=C(NC1c2ccccc2Sc2ccc(CC(F)(F)F)cc21)c1ccc(C(F)(F)F)[nH]c1=O (centres unmarked) [Compound 480, 2-oxo-N-(2-(2,2,2-trifluoroethyl)-9H-thioxanthen-9-yl)-6-(trifluoromethyl)-1,2-dihydropyridine-3-carboxamide]	400 nM
O=C(NC1c2ccccc2Oc2ccc(C3CNC3)cc21)c1ccc(C(F)(F)F)[nH]c1=O (centres unmarked) [Compound 481, N-(2-(azetidin-3-yl)-9H-xanthen-9-yl)-2-oxo-6-(trifluoromethyl)-1,2-dihydropyridine-3-carboxamide]	1420 nM
CN1CC(c2ccc3c(c2)C(NC(=O)c2ccc(C(F)(F)F)[nH]c2=O)c2ccccc2O3)C1 (centres unmarked) [Compound 482, N-(2-(1-methylazetidin-3-yl)-9H-xanthen-9-yl)-2-oxo-6-(trifluoromethyl)-1,2-dihydropyridine-3-carboxamide]	2390 nM
O=C(NC1c2ccccc2Oc2cc(C3CNC3)ccc21)c1ccc(C(F)(F)F)[nH]c1=O (centres unmarked) [Compound 483, N-(3-(azetidin-3-yl)-9H-xanthen-9-yl)-2-oxo-6-(trifluoromethyl)-1,2-dihydropyridine-3-carboxamide]	1110 nM
CN1CC(c2ccc3c(c2)Oc2ccccc2C3NC(=O)c2ccc(C(F)(F)F)[nH]c2=O)C1 (centres unmarked) [Compound 484, N-(3-(1-methylazetidin-3-yl)-9H-xanthen-9-yl)-2-oxo-6-(trifluoromethyl)-1,2-dihydropyridine-3-carboxamide]	4980 nM
Cc1ccc2c(c1)Oc1cc(C)ccc1C2NC(=O)c1ccc(C(C)C)[nH]c1=O [Compound 485, N-(3,6-dimethyl-9H-xanthen-9-yl)-6-isopropyl-2-oxo-1,2-dihydropyridine-3-carboxamide]	> 10000 nM
Cc1ccc2c(c1)Oc1cc(C)ccc1C2NC(=O)c1ccc(C(C)(C)C)[nH]c1=O [Compound 486, 6-(tert-butyl)-N-(3,6-dimethyl-9H-xanthen-9-yl)-2-oxo-1,2-dihydropyridine-3-carboxamide]	> 10000 nM
Cc1ccc2c(c1)Oc1cc(C)ccc1C2NC(=O)c1ccc(C(C)(C)C)nc1Cl [Compound 487, 6-(tert-butyl)-2-chloro-N-(3,6-dimethyl-9H-xanthen-9-yl)nicotinamide]	> 10000 nM
O=C(NC1c2ccccc2Oc2ccc(C3COC3)cc21)c1ccc(C(F)(F)F)[nH]c1=O (centres unmarked) [Compound 489, N-(2-(oxetan-3-yl)-9H-xanthen-9-yl)-2-oxo-6-(trifluoromethyl)-1,2-dihydropyridine-3-carboxamide]	230 nM
Cc1ccc(C(C(=O)Nc2ccc(C(F)(F)F)[nH]c2=O)c2ccc(C)cc2)cc1 [Compound 492, N-(2-oxo-6-(trifluoromethyl)-1,2-dihydropyridin-3-yl)-2,2-di-p-tolylacetamide]	> 10000 nM

Compounds with a lower IC50, results first:

IC50	SMILES
140 nM	Cc1ccc2c(c1)S(=O)(=O)c1cc(C)ccc1C2NC(=O)c1cc(CO)c(C(F)(F)F)[nH]c1=O [Compound 462, N-(3,6-dimethyl-10,10-dioxido-9H-thioxanthen-9-yl)-5-(hydroxymethyl)-2-oxo-6-(trifluoromethyl)-1,2-dihydropyridine-3-carboxamide]
120 nM	CCCc1ccc2c(c1)C(NC(=O)c1ccc(C(F)(F)F)[nH]c1=O)c1ccccc1O2 (centres unmarked) [Compound 457, 2-oxo-N-(2-propyl-9H-xanthen-9-yl)-6-(trifluoromethyl)-1,2-dihydropyridine-3-carboxamide]
110 nM	O=C(NC1c2ccccc2Oc2cc(C3COC3)ccc21)c1ccc(C(F)(F)F)[nH]c1=O (centres unmarked) [Compound 488, N-(3-(oxetan-3-yl)-9H-xanthen-9-yl)-2-oxo-6-(trifluoromethyl)-1,2-dihydropyridine-3-carboxamide]
90 nM	Cc1ccc2c(c1)S(=O)(=O)c1cc(C)ccc1C2NC(=O)c1cc(-c2ccncc2)c(C(F)(F)F)[nH]c1=O [Compound 493, N-(3,6-dimethyl-10,10-dioxido-9H-thioxanthen-9-yl)-6-oxo-2-(trifluoromethyl)-1,6-dihydro-[3,4′-bipyridine]-5-carboxamide]
50 nM	Cc1ccc2c(c1)Sc1cc(C)ccc1C2NC(=O)c1cc(CO)c(C(F)(F)F)[nH]c1=O [Compound 463, N-(3,6-dimethyl-9H-thioxanthen-9-yl)-5-(hydroxymethyl)-2-oxo-6-(trifluoromethyl)-1,2-dihydropyridine-3-carboxamide]
30 nM	Cc1ccc2c(c1)S(=O)(=O)c1cc(C)ccc1C2NC(=O)c1cc(Br)c(C(F)(F)F)[nH]c1=O [Compound 473, 5-bromo-N-(3,6-dimethyl-10,10-dioxido-9H-thioxanthen-9-yl)-2-oxo-6-(trifluoromethyl)-1,2-dihydropyridine-3-carboxamide]
30 nM	Cc1ccc2c(c1)S(=O)(=O)c1cc(C)ccc1C2NC(=O)c1cc(C)c(C(F)(F)F)[nH]c1=O [Compound 474, N-(3,6-dimethyl-10,10-dioxido-9H-thioxanthen-9-yl)-5-methyl-2-oxo-6-(trifluoromethyl)-1,2-dihydropyridine-3-carboxamide]
20 nM	Cc1ccc2c(c1)Oc1cc(C)ccc1C2NC(=O)c1cc(-c2cc[nH]c(=O)c2)c(C(F)(F)F)[nH]c1=O [Compound 494, N-(3,6-dimethyl-9H-xanthen-9-yl)-2′,6-dioxo-2-(trifluoromethyl)-1,1′,2′,6-tetrahydro-[3,4′-bipyridine]-5-carboxamide]
20 nM	Cc1ccc2c(c1)Oc1cc(C)ccc1C2NC(=O)c1cc(-c2cccnc2)c(C(F)(F)F)[nH]c1=O [Compound 496, N-(3,6-dimethyl-9H-xanthen-9-yl)-6-oxo-2-(trifluoromethyl)-1,6-dihydro-[3,3′-bipyridine]-5-carboxamide]
10 nM	Cc1ccc2c(c1)Oc1cc(C)ccc1C2NC(=O)c1cc(CO)c(C(F)(F)F)[nH]c1=O [Compound 464, N-(3,6-dimethyl-9H-xanthen-9-yl)-5-(hydroxymethyl)-2-oxo-6-(trifluoromethyl)-1,2-dihydropyridine-3-carboxamide]
10 nM	Cc1ccc2c(c1)S(=O)(=O)c1cc(C)ccc1C2NC(=O)c1ccc(C(F)(F)F)[nH]c1=O [Compound 475, N-(3,6-dimethyl-10,10-dioxido-9H-thioxanthen-9-yl)-2-oxo-6-(trifluoromethyl)-1,2-dihydropyridine-3-carboxamide]
